Tests used:
MU1 = biological target: T1, MU1 (unidentified, UniProt Z9NE32H8P7); assay: isothermal titration calorimetry; format: binding, Homo sapiens; conditions: 20 mM HEPES, 150 mM NaCl, pH 7.5; sequential two-sites model, stronger site
T1 construct: metagenomic phage display insert in pET-28a(+) (NdeI/XhoI; forward primer in the T7 vector upstream of the insert), N-terminal His6 kept, E. coli BL21(DE3); monomer, ~39 kDa by SEC; GenBank entry within MN313892-MN313895, ON711254-ON711279, not assigned in text
T1 sequence (Z9NE32H8P7 1-238): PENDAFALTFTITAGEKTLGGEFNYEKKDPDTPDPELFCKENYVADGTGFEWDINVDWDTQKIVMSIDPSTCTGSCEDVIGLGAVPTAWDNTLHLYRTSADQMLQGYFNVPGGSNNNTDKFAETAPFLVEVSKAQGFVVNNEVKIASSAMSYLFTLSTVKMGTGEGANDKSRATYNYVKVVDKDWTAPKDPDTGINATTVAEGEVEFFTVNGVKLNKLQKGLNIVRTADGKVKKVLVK

MN3 = biological target: T2, MN3 (unidentified, UniProt Z9ZPU1GRL3); assay: isothermal titration calorimetry; format: binding, Homo sapiens; conditions: 20 mM HEPES, 150 mM NaCl, pH 7.5; sequential two-sites model, stronger site
T2 construct: metagenomic phage display insert in pET-28a(+) (EcoRI/HindIII), N- and C-terminal His6 kept, E. coli BL21(DE3); monomer (~33 kDa) and dimer (~77 kDa); GenBank entry within MN313892-MN313895, ON711254-ON711279, not assigned in text
T2 sequence (Z9ZPU1GRL3 1-298): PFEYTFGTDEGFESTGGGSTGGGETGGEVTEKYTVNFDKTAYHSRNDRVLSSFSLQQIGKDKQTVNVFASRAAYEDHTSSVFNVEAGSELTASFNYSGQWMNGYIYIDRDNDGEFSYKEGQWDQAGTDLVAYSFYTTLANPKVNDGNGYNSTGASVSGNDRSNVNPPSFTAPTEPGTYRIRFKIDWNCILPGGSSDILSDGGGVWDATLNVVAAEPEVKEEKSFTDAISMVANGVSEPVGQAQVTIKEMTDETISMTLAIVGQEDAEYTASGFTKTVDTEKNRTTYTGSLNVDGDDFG

Fetuin = biological target: T3, Fetuin (UniProt P12763 19-359, sialylated); assay: ITC; VP-ITC; protein in the sample cell, ligand titrated (20 or 35 injections at intervals of 180 s); buffer mostly 20 mM HEPES, 150 mM NaCl, pH 7.5; single run; conditions: both partners purified
T3 construct: fetuin, a glycoprotein used as a glycan ligand in calorimetry; also called sialylated fetuin
T3 sequence (looked up): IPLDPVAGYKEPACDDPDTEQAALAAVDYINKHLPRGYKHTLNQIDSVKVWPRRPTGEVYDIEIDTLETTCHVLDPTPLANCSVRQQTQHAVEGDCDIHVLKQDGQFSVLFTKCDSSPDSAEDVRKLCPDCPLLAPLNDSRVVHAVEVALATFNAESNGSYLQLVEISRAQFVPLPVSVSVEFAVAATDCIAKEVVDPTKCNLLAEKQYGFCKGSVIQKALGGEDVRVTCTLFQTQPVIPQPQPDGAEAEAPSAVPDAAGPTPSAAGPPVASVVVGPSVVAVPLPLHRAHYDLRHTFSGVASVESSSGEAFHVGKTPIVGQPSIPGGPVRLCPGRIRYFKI

[1] = biological target: MN3 (human fecal metagenome (organism not identified)); assay: SEC; HiPrep 26/60 HR Sephacryl S-200, 150 mM NaCl, 20 mM Tris pH 7.5, mostly 1.0 ml/min

C#CCN(C(C)=O)[C@@H]1O[C@H](CO)[C@@H](O[C@@H]2O[C@H](CO)[C@H](O)[C@H](O[C@@H]3O[C@H](CO)[C@@H](O[C@@H]4O[C@H](CO)[C@H](O)[C@H](O)[C@H]4O[C@@H]4O[C@@H](C)[C@@H](O)[C@@H](O)[C@@H]4O)[C@H](O)[C@H]3NC(C)=O)[C@H]2O)[C@H](O)[C@H]1O [H antigen type-2 pentaose]
Kd (MU1): 20.8 µM
Kd (MN3): 36.8 µM

B1: MU3 (domain or fragment)
chain: QTPKDVTVVEKYQADGTGFSHTINVDWDKQKIVASIDFSNGGDDKDILAMTTGDSFTAFQTSTYRTMHWYCNQTAKQISGFFAKSGAGNNNTGRIDVADCLAKFEISKAEGLKVNGVVKMTPDALEELLTGDPIIIGSGESPKFSNAFYNYIKVVSLDWKETTEPEVTVKDEKTFNEALYMQDQKVADATVVVKG
Kd (Fetuin): 239 µM

B2: MN3 (domain or fragment)
chain: T2 sequence (Z9ZPU1GRL3 1-298)
modifications: not checked
stoichiometry N [1]: 2
